From the supplement of paper PMC10307832

Key:
Assay in all cases: relative viability (nuclei count vs DMSO), 5 days (fraction); higher = more cells survive
SW 1573 = tested on: SW 1573
In short: (§1)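 Five library-drug doses in √10 steps were combined with a fixed anchor-drug dose, or a single drug was given alone, by pin tool to lung cancer cell lines in 1536-well plates the day after seeding. Nuclei were stained and counted after 5 days. Relative viability is the nuclei count in treated wells over that in vehicle wells, taken as the median of duplicate plates.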

LXF-289 = tested on: LXF-289
In short: as §1

PC-14 = tested on: PC-14
In short: as §1

EMC-BAC-2 = tested on: EMC-BAC-2
In short: as §1

NCI-H2023 = tested on: NCI-H2023
In short: as §1

H3255 = tested on: H3255
In short: as §1

NCI-H2009 = tested on: NCI-H2009
In short: as §1

NCI-H1734 = tested on: NCI-H1734
In short: as §1

HOP-62 = tested on: HOP-62
In short: as §1

NCI-H1915 = tested on: NCI-H1915
In short: as §1

NCI-H322M = tested on: NCI-H322M
In short: as §1

NCI-H2085 = tested on: NCI-H2085
In short: as §1

NCI-H2126 = tested on: NCI-H2126
In short: as §1

EPLC-272H = tested on: EPLC-272H
In short: as §1

SK-LU-1 = tested on: SK-LU-1
In short: as §1

LCLC-97TM1 = tested on: LCLC-97TM1
In short: as §1

NCI-H1993 = tested on: NCI-H1993
In short: as §1

NCI-H647 = tested on: NCI-H647
In short: as §1

NCI-H2347 = tested on: NCI-H2347
In short: as §1

NCI-H727 = tested on: NCI-H727
In short: as §1

Compound: O=c1cc(-c2cccc3c2Sc2ccccc2S3)oc(N2CCOCC2)c1 + CC1(C)CCC(c2ccc(Cl)cc2)=C(CN2CCN(c3ccc(C(=O)NS(=O)(=O)c4ccc(N[C@H](CCN5CCOCC5)CSc5ccccc5)c(S(=O)(=O)C(F)(F)F)c4)cc3)CC2)C1 [Navitoclax] (partner 0.5 µM)
- relative viability (SW 1573; first compound 0.08 µM): 0.999
- relative viability (SW 1573; first compound 0.253 µM): 1.14
- relative viability (SW 1573; first compound 0.8 µM): 1.04
- relative viability (SW 1573; first compound 2.53 µM): 1.12
- relative viability (SW 1573; first compound 8 µM): 1.17
- relative viability (LXF-289; first compound 0.08 µM): 0.996
- relative viability (LXF-289; first compound 0.253 µM): 1.06
- relative viability (LXF-289; first compound 0.8 µM): 1.03
- relative viability (LXF-289; first compound 2.53 µM): 0.951
- relative viability (LXF-289; first compound 8 µM): 1
- relative viability (PC-14; first compound 0.08 µM): 1.04
- relative viability (PC-14; first compound 0.253 µM): 1.31
- relative viability (PC-14; first compound 0.8 µM): 1.01
- relative viability (PC-14; first compound 2.53 µM): 0.946
- relative viability (PC-14; first compound 8 µM): 1.05
- relative viability (EMC-BAC-2; first compound 0.08 µM): 1.3
- relative viability (EMC-BAC-2; first compound 0.253 µM): 1.41
- relative viability (EMC-BAC-2; first compound 0.8 µM): 1.37
- relative viability (EMC-BAC-2; first compound 2.53 µM): 1.2
- relative viability (EMC-BAC-2; first compound 8 µM): 1.35
- relative viability (NCI-H2023; first compound 0.08 µM): 1.04
- relative viability (NCI-H2023; first compound 0.253 µM): 1.12
- relative viability (NCI-H2023; first compound 0.8 µM): 1.04
- relative viability (NCI-H2023; first compound 2.53 µM): 0.943
- relative viability (NCI-H2023; first compound 8 µM): 1.02
- relative viability (H3255; first compound 0.08 µM): 0.55
- relative viability (H3255; first compound 0.253 µM): 0.468
- relative viability (H3255; first compound 0.8 µM): 0.474
- relative viability (H3255; first compound 2.53 µM): 0.61
- relative viability (H3255; first compound 8 µM): 0.698
- relative viability (NCI-H2009; first compound 0.08 µM): 1.22
- relative viability (NCI-H2009; first compound 0.253 µM): 1.2
- relative viability (NCI-H2009; first compound 0.8 µM): 1.21
- relative viability (NCI-H2009; first compound 2.53 µM): 1.05
- relative viability (NCI-H2009; first compound 8 µM): 1.11
- relative viability (NCI-H1734; first compound 0.08 µM): 0.845
- relative viability (NCI-H1734; first compound 0.253 µM): 1.13
- relative viability (NCI-H1734; first compound 0.8 µM): 1.06
- relative viability (NCI-H1734; first compound 2.53 µM): 0.818
- relative viability (NCI-H1734; first compound 8 µM): 1.02
- relative viability (HOP-62; first compound 0.08 µM): 1.09
- relative viability (HOP-62; first compound 0.253 µM): 1.43
- relative viability (HOP-62; first compound 0.8 µM): 1.21
- relative viability (HOP-62; first compound 2.53 µM): 0.902
- relative viability (HOP-62; first compound 8 µM): 1.28
- relative viability (NCI-H1915; first compound 0.08 µM): 0.776
- relative viability (NCI-H1915; first compound 0.253 µM): 0.847
- relative viability (NCI-H1915; first compound 0.8 µM): 0.795
- relative viability (NCI-H1915; first compound 2.53 µM): 0.787
- relative viability (NCI-H1915; first compound 8 µM): 0.872
- relative viability (NCI-H322M; first compound 0.08 µM): 1.2
- relative viability (NCI-H322M; first compound 0.253 µM): 1.3
- relative viability (NCI-H322M; first compound 0.8 µM): 1.15
- relative viability (NCI-H322M; first compound 2.53 µM): 1.16
- relative viability (NCI-H322M; first compound 8 µM): 1.05
- relative viability (NCI-H2085; first compound 0.08 µM): 1.15
- relative viability (NCI-H2085; first compound 0.253 µM): 1.31
- relative viability (NCI-H2085; first compound 0.8 µM): 1.17
- relative viability (NCI-H2085; first compound 2.53 µM): 1.05
- relative viability (NCI-H2085; first compound 8 µM): 1.07
- relative viability (NCI-H2126; first compound 0.08 µM): 0.808
- relative viability (NCI-H2126; first compound 0.253 µM): 0.974
- relative viability (NCI-H2126; first compound 0.8 µM): 0.8
- relative viability (NCI-H2126; first compound 2.53 µM): 0.826
- relative viability (NCI-H2126; first compound 8 µM): 0.849
- relative viability (EPLC-272H; first compound 0.08 µM): 1.09
- relative viability (EPLC-272H; first compound 0.253 µM): 1.17
- relative viability (EPLC-272H; first compound 0.8 µM): 1.17
- relative viability (EPLC-272H; first compound 2.53 µM): 1.09
- relative viability (EPLC-272H; first compound 8 µM): 1.2
- relative viability (SK-LU-1; first compound 0.08 µM): 0.684
- relative viability (SK-LU-1; first compound 0.253 µM): 0.924
- relative viability (SK-LU-1; first compound 0.8 µM): 0.787
- relative viability (SK-LU-1; first compound 2.53 µM): 1.02
- relative viability (SK-LU-1; first compound 8 µM): 1.09
- relative viability (LCLC-97TM1; first compound 0.08 µM): 0.425
- relative viability (LCLC-97TM1; first compound 0.253 µM): 0.597
- relative viability (LCLC-97TM1; first compound 0.8 µM): 0.374
- relative viability (LCLC-97TM1; first compound 2.53 µM): 0.329
- relative viability (LCLC-97TM1; first compound 8 µM): 0.372
- relative viability (NCI-H1993; first compound 0.08 µM): 1.09
- relative viability (NCI-H1993; first compound 0.253 µM): 0.989
- relative viability (NCI-H1993; first compound 0.8 µM): 0.768
- relative viability (NCI-H1993; first compound 2.53 µM): 0.824
- relative viability (NCI-H1993; first compound 8 µM): 0.871
- relative viability (NCI-H647; first compound 0.08 µM): 1.2
- relative viability (NCI-H647; first compound 0.253 µM): 1.15
- relative viability (NCI-H647; first compound 0.8 µM): 1.12
- relative viability (NCI-H647; first compound 2.53 µM): 1.04
- relative viability (NCI-H647; first compound 8 µM): 1.37
- relative viability (NCI-H2347; first compound 0.08 µM): 0.855
- relative viability (NCI-H2347; first compound 0.253 µM): 1.08
- relative viability (NCI-H2347; first compound 0.8 µM): 0.799
- relative viability (NCI-H2347; first compound 2.53 µM): 0.839
- relative viability (NCI-H2347; first compound 8 µM): 0.969
- relative viability (NCI-H727; first compound 0.253 µM): 0.356
- relative viability (NCI-H727; first compound 2.53 µM): 0.369
- relative viability (NCI-H727; first compound 8 µM): 0.494
